Data as given in ChEMBL document CHEMBL5126611, “Design, Synthesis, and Biological Evaluations of Pyridyl 4,5,6,7-Tetrahydro-4,7-Methanobenzo[d]isoxazoles as Potent and Selective Inhibitors of 11β-Hydroxylase” (J Med Chem, 2022).

Tests used:
[1] = AUC (0 to infinity) in Sprague-Dawley rat at 25 mg/kg, po measured up to 24 hrs by LC-MS analysis; assay type: ADME, organism-based; design: dose 25 mg/kg, time < 24 hrs, route po; conditions: in vivo
[2] = Cmax in Sprague-Dawley rat at 25 mg/kg, po measured up to 24 hrs by LC-MS analysis; assay type: ADME, organism-based; design: dose 25 mg/kg, time < 24 hrs, route po; conditions: in vivo
Cytochrome P450 3A4 = Cytochrome P450 3A4 (Homo sapiens, UniProt P08684); experiment: Inhibition of human hepatic recombinant CYP3A using cocktail of substrate by LC-MS/MS analysis; assay type: ADME
Cytochrome P450 2D6 = Cytochrome P450 2D6 (Homo sapiens, UniProt P10635); experiment: Inhibition of human hepatic recombinant CYP2D6 using cocktail of substrate by LC-MS/MS analysis; assay type: ADME
[3] = Bioavailability in Sprague-Dawley rat at 5 mg/kg, iv measured up to 24 hrs by LC-MS analysis; assay type: ADME, organism-based; conditions: in vivo
Cytochrome P450 2C9 = Cytochrome P450 2C9 (Homo sapiens, UniProt P11712); experiment: Inhibition of human hepatic recombinant CYP2C9 using cocktail of substrate by LC-MS/MS analysis; assay type: ADME
[4] = target: T1, Cytochrome P450 11B1, mitochondrial (Homo sapiens, UniProt P15538); experiment: Inhibition of human CYP11B1 expressed in Chinese hamster V79 MZh cells using [14C]-deoxycorticosteron as substrate measured after 6 hrs by phosphoimager analysis; assay type: ADME, cell-based
T1 sequence (P15538 whole entry): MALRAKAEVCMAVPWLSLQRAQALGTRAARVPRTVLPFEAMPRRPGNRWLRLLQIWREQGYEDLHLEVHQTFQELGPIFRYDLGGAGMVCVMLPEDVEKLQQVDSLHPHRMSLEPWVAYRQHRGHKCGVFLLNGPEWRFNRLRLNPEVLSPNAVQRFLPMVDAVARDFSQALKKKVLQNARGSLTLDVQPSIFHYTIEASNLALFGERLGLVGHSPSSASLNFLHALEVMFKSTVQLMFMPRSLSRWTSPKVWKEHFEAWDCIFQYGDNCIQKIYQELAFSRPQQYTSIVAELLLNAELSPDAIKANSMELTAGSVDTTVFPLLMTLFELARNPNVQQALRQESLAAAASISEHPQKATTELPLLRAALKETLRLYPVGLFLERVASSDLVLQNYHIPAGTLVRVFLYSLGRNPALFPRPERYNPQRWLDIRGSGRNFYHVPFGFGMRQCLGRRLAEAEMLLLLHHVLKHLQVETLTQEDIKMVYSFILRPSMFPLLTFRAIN

[5] = Selectivity ratio of IC50 for inhibition of rat CYP11B2 to IC50 for inhibition of rat CYP11B1; assay type: ADME
[6] = target: T2, Steroid 17-alpha-hydroxylase/17,20 lyase (Homo sapiens, UniProt P05093); experiment: Inhibition of human CYP17 expressed in Escherichia coli; assay type: ADME
T2 sequence (P05093 whole entry): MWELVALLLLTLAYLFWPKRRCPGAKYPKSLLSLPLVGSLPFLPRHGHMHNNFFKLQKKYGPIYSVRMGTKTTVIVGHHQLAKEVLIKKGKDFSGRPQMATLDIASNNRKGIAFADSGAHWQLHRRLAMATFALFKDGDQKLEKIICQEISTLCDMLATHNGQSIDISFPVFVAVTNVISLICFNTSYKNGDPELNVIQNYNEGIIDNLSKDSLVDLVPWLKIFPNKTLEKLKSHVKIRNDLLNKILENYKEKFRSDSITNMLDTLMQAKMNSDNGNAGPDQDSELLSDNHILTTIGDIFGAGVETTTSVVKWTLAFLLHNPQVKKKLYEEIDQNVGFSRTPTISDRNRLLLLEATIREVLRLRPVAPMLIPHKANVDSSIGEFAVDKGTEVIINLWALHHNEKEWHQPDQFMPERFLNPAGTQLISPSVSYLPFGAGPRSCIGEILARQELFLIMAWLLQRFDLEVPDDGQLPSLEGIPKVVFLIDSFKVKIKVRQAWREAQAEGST

Chain of Cytochrome P450 2D6 (P10635 whole entry): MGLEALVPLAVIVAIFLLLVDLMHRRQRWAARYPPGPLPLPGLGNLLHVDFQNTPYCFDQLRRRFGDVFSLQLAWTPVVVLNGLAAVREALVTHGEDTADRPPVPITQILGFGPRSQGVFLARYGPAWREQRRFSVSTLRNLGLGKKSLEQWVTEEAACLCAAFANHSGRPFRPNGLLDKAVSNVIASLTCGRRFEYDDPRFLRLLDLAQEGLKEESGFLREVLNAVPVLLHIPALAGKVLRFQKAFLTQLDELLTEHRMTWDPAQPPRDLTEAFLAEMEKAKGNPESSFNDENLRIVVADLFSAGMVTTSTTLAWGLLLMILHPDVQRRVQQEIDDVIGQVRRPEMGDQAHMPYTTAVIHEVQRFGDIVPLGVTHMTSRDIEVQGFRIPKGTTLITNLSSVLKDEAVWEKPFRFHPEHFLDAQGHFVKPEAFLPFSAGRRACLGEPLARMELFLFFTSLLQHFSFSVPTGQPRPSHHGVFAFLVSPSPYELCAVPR
Chain of Cytochrome P450 2C9 (P11712 whole entry): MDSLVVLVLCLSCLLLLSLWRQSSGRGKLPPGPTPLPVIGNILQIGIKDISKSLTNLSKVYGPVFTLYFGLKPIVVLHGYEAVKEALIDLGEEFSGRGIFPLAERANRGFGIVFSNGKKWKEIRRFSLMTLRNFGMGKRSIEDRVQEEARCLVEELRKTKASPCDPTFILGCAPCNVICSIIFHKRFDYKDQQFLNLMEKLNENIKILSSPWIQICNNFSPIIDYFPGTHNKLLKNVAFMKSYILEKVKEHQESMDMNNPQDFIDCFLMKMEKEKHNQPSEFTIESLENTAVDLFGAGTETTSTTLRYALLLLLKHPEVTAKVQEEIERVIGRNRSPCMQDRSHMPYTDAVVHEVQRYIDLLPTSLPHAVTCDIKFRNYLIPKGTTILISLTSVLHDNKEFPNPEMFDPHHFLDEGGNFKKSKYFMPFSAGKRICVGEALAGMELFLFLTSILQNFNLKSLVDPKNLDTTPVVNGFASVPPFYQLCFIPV
Chain of Cytochrome P450 3A4 (P08684 whole entry): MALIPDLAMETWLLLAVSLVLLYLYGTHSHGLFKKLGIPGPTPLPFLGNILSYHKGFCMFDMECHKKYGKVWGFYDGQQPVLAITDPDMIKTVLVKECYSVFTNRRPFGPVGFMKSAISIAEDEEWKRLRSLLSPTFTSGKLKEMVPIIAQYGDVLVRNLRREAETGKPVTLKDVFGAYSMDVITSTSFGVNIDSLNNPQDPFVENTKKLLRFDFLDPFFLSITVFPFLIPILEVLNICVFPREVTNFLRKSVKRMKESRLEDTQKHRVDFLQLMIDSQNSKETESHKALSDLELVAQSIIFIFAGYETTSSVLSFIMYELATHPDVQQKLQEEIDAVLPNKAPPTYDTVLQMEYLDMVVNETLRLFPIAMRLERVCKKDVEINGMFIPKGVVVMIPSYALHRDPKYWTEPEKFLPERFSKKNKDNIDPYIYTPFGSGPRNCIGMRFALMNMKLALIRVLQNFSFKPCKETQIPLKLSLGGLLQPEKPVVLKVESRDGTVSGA

Which results are given for `O=C(Nc1ccc2[nH]ncc2c1)[C@]12ON=C(c3cccnc3)[C@H]1[C@@H]1CC[C@H]2C1`?
AUC(0-inf) [1]: 54500 ng·h/mL; Cmax [2]: 7990 ng/mL; IC50 (Cytochrome P450 3A4): > 10 µM; IC50 (Cytochrome P450 2D6): > 10 µM; bioavailability [3]: 21.4%; IC50 (Cytochrome P450 2C9): > 10 µM; IC50 [4]: 0.009 µM; Ratio IC50 [5]: 81; IC50 [6]: > 10 µM
